pIC50: −log10 of the molar value.
Columns and labels:
[1] = molecular target: GST-tagged KRAS-G12D (2-169) (Homo sapiens, UniProt P01116, G12D); experiment: Nucleotide exchange assay (NEA), SOS-mediated, HTRF, KRAS G12D; type: biochemical; conditions: Table 4; IC50 extracted at 30 min; 20 nM SOScat; read-out: NEA G12D IC50
Outline: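 SOS1cat-driven loading of fluorescent GTP-DY-647P1 (150 nM) onto GST-KRAS-G12D (2-169, 0.25 nM) read by time-resolved FRET; SOScat 20 nM, compound preincubated with KRAS 1 h at RT. Signal blanked to no-SOS reactions, normalized to DMSO; IC50 fitted from the 30-min read.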

[2] = molecular target: GST-tagged KRAS-G12V (2-169) (Homo sapiens, UniProt P01116, G12V); experiment: Nucleotide exchange assay (NEA), SOS-mediated, HTRF, KRAS G12V; type: biochemical; conditions: Table 4; IC50 extracted at 90 min; 80 nM SOS
Outline: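 Exchange onto fluorescent GTP-DY-647P1 (150 nM final) catalysed by 80 nM SOS1cat was followed by Tb-anti-GST HTRF at RT for up to 90 min, after 1 h compound pre-incubation with 0.25 nM GST-tagged KRAS-G12V (2-169), pH 7.3. DMSO = 0%, no-SOS blank = 100%; 4-parameter IC50 taken at 90 min.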

[3] = system: phospho-ERK in GP2D (KRAS-G12D) cells; experiment: pERK In Cell Western (ICW) assay (Method B), GP2D; type: cell-based; conditions: GP2d, 3 h, Table 4
Outline: (§1)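 Per well, infrared pERK immunofluorescence was divided by DRAQ5 nuclear signal following 3 h treatment with a 9-point, ½-log compound series; seeding was 5,000 (AGS) or 10,000 (GP2D, SW620) cells per well. Percent-of-blank data were fitted to a four-parameter model for IC50.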

[4] = system: phospho-ERK in SW620 (KRAS-G12V) cells; experiment: pERK In Cell Western (ICW) assay (Method B), SW620; type: cell-based; conditions: Homo sapiens, SW-620, 3 h, Table 4
Outline: as §1

Chain of GST-tagged KRAS-G12D (2-169) (P01116 2-169 isoform P01116-2 G12D): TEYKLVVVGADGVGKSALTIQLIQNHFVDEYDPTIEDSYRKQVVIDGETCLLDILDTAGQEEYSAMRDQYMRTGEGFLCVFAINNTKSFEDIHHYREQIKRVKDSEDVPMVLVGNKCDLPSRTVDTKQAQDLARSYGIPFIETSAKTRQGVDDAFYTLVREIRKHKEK
Chain of GST-tagged KRAS-G12V (2-169) (P01116 2-169 isoform P01116-2 G12V): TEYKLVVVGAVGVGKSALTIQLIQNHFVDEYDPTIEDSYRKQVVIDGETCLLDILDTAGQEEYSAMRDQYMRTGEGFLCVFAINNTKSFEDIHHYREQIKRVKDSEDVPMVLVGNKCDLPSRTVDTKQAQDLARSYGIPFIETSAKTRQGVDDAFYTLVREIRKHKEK

SMILES	pIC50 [1]	pIC50 [2]	pIC50 [3]	pIC50 [4]
C[C@@]1(O)CCCN(c2nc(OCC3(CN4CCOCC4)CC3)nc(N3CC4(C3)c3c(sc(N)c3C#N)C[C@@H]4F)n2)C1 [Compound 68, (5S)-2-amino-5-fluoro-1′-[4-[(3R)-3-hydroxy-3-methyl-1-piperidyl]-6-[[1-(morpholinomethyl)cyclopropyl]methoxy]-1,3,5-triazin-2-yl]spiro[5,6-dihydrocyclopenta[b]thiophene-4,3′-azetidine]-3-carbonitrile]	> 8.00	7.00 to 8.00	6.00 to 7.00	6.00 to 7.00
N#Cc1c(N)sc2c1C1(CC2)CN(c2nc(OC[C@@]34CCCN3C[C@H](F)C4)nc(N3CCCOC[C@H]3CO)n2)C1 [Compound 69, 2-amino-1′-[4-[[(2R,8S)-2-fluoro-1,2,3,5,6,7-hexahydropyrrolizin-8-yl]methoxy]-6-[(3R)-3-(hydroxymethyl)-1,4-oxazepan-4-yl]-1,3,5-triazin-2-yl]spiro[5,6-dihydrocyclopenta[b]thiophene-4,3′-azetidine]-3-carbonitrile]	7.00 to 8.00	7.00 to 8.00	4.70 to 6.00	4.70 to 6.00
C[C@@]1(O)CCCN(c2nc(OCC3(CN4CCOCC4)CC3)nc(N3CC4(C3)c3c(sc(N)c3C#N)C[C@H]4F)n2)C1 [Compound 70, (5R)-2-amino-5-fluoro-1′-[4-[(3R)-3-hydroxy-3-methyl-1-piperidyl]-6-[[1-(morpholinomethyl)cyclopropyl]methoxy]-1,3,5-triazin-2-yl]spiro[5,6-dihydrocyclopenta[b]thiophene-4,3′-azetidine]-3-carbonitrile]	> 8.00	> 8.00	6.00 to 7.00	6.00 to 7.00
C[C@@]1(O)CCCN(c2nc(OC[C@@]34CCCN3C[C@H](F)C4)nc(N3CC4(C3)c3c(sc(N)c3C#N)CC4F)n2)C1 (stereo partly drawn) [Compound 71, 2-amino-5-fluoro-1′-[4-[[(2R,8S)-2-fluoro-1,2,3,5,6,7-hexahydropyrrolizin-8-yl]methoxy]-6-[(3R)-3-hydroxy-3-methyl-1-piperidyl]-1,3,5-triazin-2-yl]spiro[5,6-dihydrocyclopenta[b]thiophene-4,3′-azetidine]-3-carbonitrile]	> 8.00	7.00 to 8.00	6.00 to 7.00	6.00 to 7.00
C[C@@]1(O)CCCN(c2nc(OCC3(CN4CCOCC4)CC3)nc(N3CC4(C3)SCc3sc(N)c(C#N)c34)n2)C1 [Compound 73, 2-amino-1′-[4-[(3R)-3-hydroxy-3-methyl-1-piperidyl]-6-[[1-(morpholinomethyl)cyclopropyl]methoxy]-1,3,5-triazin-2-yl]spiro[6H-thieno[2,3-c]thiophene-4,3′-azetidine]-3-carbonitrile]	> 8.00	> 8.00	7.00 to 8.00	7.00 to 8.00
N#Cc1c(N)sc2c1C1(CC2)CN(c2nc(OC[C@@]34CCCN3C[C@H](F)C4)nc(N3CCCCC(C#N)C3)n2)C1 (stereo partly drawn) [Compound 74, 2-amino-1′-[4-(3-cyanoazepan-1-yl)-6-[[(2R,8S)-2-fluoro-1,2,3,5,6,7-hexahydropyrrolizin-8-yl]methoxy]-1,3,5-triazin-2-yl]spiro[5,6-dihydrocyclopenta[b]thiophene-4,3′-azetidine]-3-carbonitrile]	7.00 to 8.00	> 8.00	6.00 to 7.00	6.00 to 7.00
N#CCC1(O)CCCN(c2nc(OC[C@@]34CCCN3C[C@H](F)C4)nc(N3CC4(CCc5sc(N)c(C#N)c54)C3)n2)C1 (stereo partly drawn) [Compound 79, 2-amino-1′-[4-[3-(cyanomethyl)-3-hydroxy-1-piperidyl]-6-[[(2R,8S)-2-fluoro-1,2,3,5,6,7-hexahydropyrrolizin-8-yl]methoxy]-1,3,5-triazin-2-yl]spiro[5,6-dihydrocyclopenta[b]thiophene-4,3′-azetidine]-3-carbonitrile; 2,2,2-trifluoroacetic acid]	7.00 to 8.00	> 8.00	6.00 to 7.00	4.70 to 6.00
N#Cc1c(N)sc2c1C1(CC2)CN(c2nc(OC[C@@]34CCCN3C[C@H](F)C4)nc(N3CCC[C@@H](O)[C@@H](O)C3)n2)C1 [Compound 81, 2-amino-1′-[4-[(3S,4R)-3,4-dihydroxyazepan-1-yl]-6-[[(2R,8S)-2-fluoro-1,2,3,5,6,7-hexahydropyrrolizin-8-yl]methoxy]-1,3,5-triazin-2-yl]spiro[5,6-dihydrocyclopenta[b]thiophene-4,3′-azetidine]-3-carbonitrile; 2,2,2-trifluoroacetic acid]	> 8.00	> 8.00	6.00 to 7.00	4.70 to 6.00
CC1(O)CC(F)CN(c2nc(OC[C@@]34CCCN3C[C@H](F)C4)nc(N3CC4(CCc5sc(N)c(C#N)c54)C3)n2)C1 (stereo partly drawn) [Compound 82, 2′-amino-1-(4-(5-fluoro-3-hydroxy-3-methylpiperidin-1-yl)-6-(((2R,7aS)-2-fluorotetrahydro-1H-pyrrolizin-7a(5H)-yl)methoxy)-1,3,5-triazin-2-yl)-5′,6′-dihydrospiro[azetidine-3,4′-cyclopenta[b]thiophene]-3′-carbonitrile]	> 8.00	> 8.00	7.00 to 8.00	6.00 to 7.00
N#Cc1c(N)sc2c1C1(CC2)CN(c2nc(NCc3ccn[nH]3)nc(OC[C@@]34CCCN3C[C@H](F)C4)n2)C1 [Compound 84, 2-amino-1′-[4-[[(2R,8S)-2-fluoro-1,2,3,5,6,7-hexahydropyrrolizin-8-yl]methoxy]-6-(1H-pyrazol-5-ylmethylamino)-1,3,5-triazin-2-yl]spiro[5,6-dihydrocyclopenta[b]thiophene-4,3′-azetidine]-3-carbonitrile]	6.00 to 7.00	6.00 to 7.00	4.70 to 6.00	≤ 4.70
N#Cc1c(N)sc2c1C1(CC2)CN(c2nc(OC[C@@]34CCCN3C[C@H](F)C4)nc(N3CCCC(O)(CO)C3)n2)C1 (stereo partly drawn) [Compound 85, 2-amino-1′-[4-[3-hydroxy-3-(hydroxymethyl)-1-piperidyl]-6-[[(2R,8S)-2-fluoro-1,2,3,5,6,7-hexahydropyrrolizin-8-yl]methoxy]-1,3,5-triazin-2-yl]spiro[5,6-dihydrocyclopenta[b]thiophene-4,3′-azetidine]-3-carbonitrile]	6.00 to 7.00	7.00 to 8.00	4.70 to 6.00	4.70 to 6.00
N#Cc1c(N)sc2c1C1(CC2)CN(c2nc(OCC3(CN4CCOCC4)CC3)nc(N3CCCCC(C#N)C3)n2)C1 (stereo not shown) [Compound 86, 2-amino-1′-[4-(3-cyanoazepan-1-yl)-6-[[1-(morpholinomethyl)cyclopropyl]methoxy]-1,3,5-triazin-2-yl]spiro[5,6-dihydrocyclopenta[b]thiophene-4,3′-azetidine]-3-carbonitrile]	7.00 to 8.00	7.00 to 8.00	6.00 to 7.00	4.70 to 6.00
N#Cc1c(N)sc2c1C1(CC2)CN(c2nc(OC[C@@]34CCCN3C[C@H](F)C4)nc(N3CCCC(O)(C(F)F)C3)n2)C1 (stereo partly drawn) [Compound 87, 2-amino-1′-[4-[3-(difluoromethyl)-3-hydroxy-1-piperidyl]-6-[[(2R,8S)-2-fluoro-1,2,3,5,6,7-hexahydropyrrolizin-8-yl]methoxy]-1,3,5-triazin-2-yl]spiro[5,6-dihydrocyclopenta[b]thiophene-4,3′-azetidine]-3-carbonitrile]	7.00 to 8.00	7.00 to 8.00	6.00 to 7.00	4.70 to 6.00
